Measured values taken from BindingDB's records for PubMed 36069713 (China Pharmaceutical University, 2022).

Assay: Agonist activity at STING in STING knockout human THP-1 cells harboring IRF-inducible luciferase reporter construct assessed as increase in relative […] unit incubated for 12 hrs by Quanti-luc reagent based assay

## CC[C@H](CC(=O)c1cc2cc(OC)c(OC)cc2[se]1)C(=O)O
  EC50: > 100 µM
